This is an account of results in patent US8541588B2, “Sulfonamide derivatives” (Pfizer Limited, priority 2009, dated 2013).

As usually defined, the IC50 is the midpoint of a concentration-inhibition curve.

For one test, the target named is T1, Nav1.7 (or SCN9A) channel; HEK cells stably transfected with hSCN9A (Homo sapiens, UniProt Q15858).
T1 construct: expressed in transfected cells
T1 sequence (Q15858 whole entry): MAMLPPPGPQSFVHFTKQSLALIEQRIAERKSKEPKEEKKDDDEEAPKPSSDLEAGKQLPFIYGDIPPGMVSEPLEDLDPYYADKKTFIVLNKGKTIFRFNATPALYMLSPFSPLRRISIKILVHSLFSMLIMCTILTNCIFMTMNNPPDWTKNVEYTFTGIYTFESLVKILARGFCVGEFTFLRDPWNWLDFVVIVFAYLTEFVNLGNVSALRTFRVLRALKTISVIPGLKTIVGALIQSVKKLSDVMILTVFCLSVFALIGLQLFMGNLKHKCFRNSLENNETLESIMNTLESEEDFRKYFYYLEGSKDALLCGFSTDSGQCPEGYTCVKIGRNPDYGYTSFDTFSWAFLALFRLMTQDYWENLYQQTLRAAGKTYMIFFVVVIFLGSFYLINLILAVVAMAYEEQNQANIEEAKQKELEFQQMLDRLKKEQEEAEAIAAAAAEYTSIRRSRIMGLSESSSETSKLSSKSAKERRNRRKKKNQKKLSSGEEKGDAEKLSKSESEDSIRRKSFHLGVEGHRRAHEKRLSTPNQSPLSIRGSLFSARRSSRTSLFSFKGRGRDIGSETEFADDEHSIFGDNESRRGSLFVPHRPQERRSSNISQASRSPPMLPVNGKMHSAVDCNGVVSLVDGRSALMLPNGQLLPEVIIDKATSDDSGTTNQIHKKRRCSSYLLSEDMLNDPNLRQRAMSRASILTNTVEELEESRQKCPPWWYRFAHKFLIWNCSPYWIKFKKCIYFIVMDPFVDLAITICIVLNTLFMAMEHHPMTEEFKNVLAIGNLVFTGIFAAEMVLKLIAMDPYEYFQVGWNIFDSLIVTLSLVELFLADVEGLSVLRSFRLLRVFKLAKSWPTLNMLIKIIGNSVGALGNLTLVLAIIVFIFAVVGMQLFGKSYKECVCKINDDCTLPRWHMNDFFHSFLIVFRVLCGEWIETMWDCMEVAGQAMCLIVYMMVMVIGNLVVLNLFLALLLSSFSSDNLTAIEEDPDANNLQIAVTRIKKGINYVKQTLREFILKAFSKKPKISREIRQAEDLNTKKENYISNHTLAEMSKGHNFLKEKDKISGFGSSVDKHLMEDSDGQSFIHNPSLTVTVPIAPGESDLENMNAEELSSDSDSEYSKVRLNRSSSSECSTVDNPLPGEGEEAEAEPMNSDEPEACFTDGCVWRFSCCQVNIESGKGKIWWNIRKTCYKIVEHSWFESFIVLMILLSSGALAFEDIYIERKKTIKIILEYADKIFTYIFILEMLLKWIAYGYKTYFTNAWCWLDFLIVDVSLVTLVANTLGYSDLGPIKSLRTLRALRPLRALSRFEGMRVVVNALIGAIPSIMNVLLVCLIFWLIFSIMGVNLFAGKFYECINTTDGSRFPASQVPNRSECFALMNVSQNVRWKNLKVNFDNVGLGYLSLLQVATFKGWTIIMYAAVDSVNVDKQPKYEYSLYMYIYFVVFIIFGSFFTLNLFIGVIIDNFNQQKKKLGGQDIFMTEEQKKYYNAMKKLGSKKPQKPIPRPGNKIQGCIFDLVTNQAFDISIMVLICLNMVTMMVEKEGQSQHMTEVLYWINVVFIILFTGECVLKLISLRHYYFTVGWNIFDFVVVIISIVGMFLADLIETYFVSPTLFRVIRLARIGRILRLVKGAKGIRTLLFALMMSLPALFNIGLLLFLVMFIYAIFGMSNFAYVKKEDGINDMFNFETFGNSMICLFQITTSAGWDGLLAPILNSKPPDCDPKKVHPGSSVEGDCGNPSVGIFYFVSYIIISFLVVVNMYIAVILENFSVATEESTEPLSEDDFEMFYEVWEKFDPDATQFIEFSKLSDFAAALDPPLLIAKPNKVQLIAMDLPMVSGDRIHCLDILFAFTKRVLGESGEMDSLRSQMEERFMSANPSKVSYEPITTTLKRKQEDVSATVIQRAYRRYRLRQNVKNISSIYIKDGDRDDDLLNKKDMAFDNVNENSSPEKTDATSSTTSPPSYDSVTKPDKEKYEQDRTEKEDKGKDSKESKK
The test can be described thus: Nav1.7 block, PatchXpress 7000 automated whole-cell voltage clamp, estimated IC50 (EIC50). Type of test: cell-based. The settings on record: estimated IC50; hSCN9A HEK cells, PatchXpress platform; Examples 283-814.
For the molecule “tert-Butyl [(5-chloro-2,4-difluorophenyl)sulfonyl](5-cyano-1,3-thiazol-4-yl)carbamate [Example 516]”, the 50% inhibitory concentration (IC50) is 10000 nM.

The same test, now with this note: estimated IC50; hSCN9A HEK cells, PatchXpress platform; Examples 815-1040.
On to `CN1CC(n2nccc2-c2cc(C(F)(F)F)ccc2Oc2cc(F)c(S(=O)(=O)Nc3cscn3)cc2F)C1` [Example 1023, 2,5-Difluoro-4-{2-[1-(1-methylazetidin-3-yl)-1H-pyrazol-5-yl]-4-(trifluoromethyl)phenoxy}-N-1,3-thiazol-4-ylbenzenesulfonamide], for which the half-maximal inhibitory concentration (IC50) was 4 nM.
The same measure, in the same setting: the result for `N#Cc1cc(S(=O)(=O)Nc2ncns2)ccc1Oc1ccc(Cl)cc1-c1ccnc(OC2CCC2)c1` [Example 1025, 4-{4-Chloro-2-[2-(cyclobutyloxy)pyridin-4-yl]phenoxy}-3-cyano-N-1,2,4-thiadiazol-5-ylbenzenesulfonamide] reads 4.1 nM; that for `CN(C)c1cc(-c2cc(Cl)ccc2Oc2ccc(S(=O)(=O)Nc3ncns3)cc2C#N)ccn1` [Example 1026, 4-{4-Chloro-2-[2-(dimethylamino)pyridin-4-yl]phenoxy}-3-cyano-N-1,2,4-thiadiazol-5-ylbenzenesulfonamide], 1.6 nM; that for `N#Cc1cc(S(=O)(=O)Nc2ncns2)ccc1Oc1ccc(Cl)cc1-c1ccnc(N2CCNCC2)n1` [Example 1030, 4-[4-Chloro-2-(2-piperazin-1-ylpyrimidin-4-yl)phenoxy]-3-cyano-N-1,2,4-thiadiazol-5-ylbenzenesulfonamide], 0.7 nM.
Same read-out and setting: next, `Nc1cc(-c2cc(Cl)ccc2Oc2cc(F)c(S(=O)(=O)Nc3cccnn3)cc2Cl)ccn1` [Example 1031, 4-[2-(2-aminopyridin-4-yl)-4-chlorophenoxy]-5-chloro-2-fluoro-N-pyridazin-3-ylbenzenesulfonamide]: 29 nM; `O=S(=O)(Nc1cscn1)c1cc(F)c(Oc2ccc(Cl)cc2-c2ccnc(CN3CCC3)c2)cc1F` [Example 1032, 4-{2-[2-(Azetidin-1-ylmethyl)pyridin-4-yl]-4-chlorophenoxy}-2,5-difluoro-N-1,3-thiazol-4-ylbenzenesulfonamide]: 13 nM; `CCN1CC(n2nccc2-c2cc(C(F)(F)F)ccc2Oc2ccc(S(=O)(=O)Nc3ncns3)cc2C#N)C1` [Example 1033, 3-Cyano-4-{2-[1-(1-ethylazetidin-3-yl)-1H-pyrazol-5-yl]-4-(trifluoromethyl)phenoxy}-N-1,2,4-thiadiazol-5-ylbenzenesulfonamide]: 3.5 nM.
The same measure, in the same setting: the result for `O=S(=O)(Nc1nncs1)c1cc(Cl)c(Oc2cc(F)c(C(F)(F)F)cc2-c2ccnnc2)cc1F` [Example 1034, 5-Chloro-2-fluoro-4-[5-fluoro-2-pyridazin-4-yl-4-(trifluoromethyl)phenoxy]-N-1,3,4-thiadiazol-2-ylbenzenesulfonamide] reads 11 nM; that for `N#Cc1cc(S(=O)(=O)Nc2ncns2)ccc1Oc1cc(F)c(C(F)(F)F)cc1-c1ccnnc1` [Example 1035, 3-Cyano-4-[5-fluoro-2-pyridazin-4-yl-4-(trifluoromethyl)phenoxy]-N-1,2,4-thiodiazol-5-ylbenzenesulfonamide], 3.8 nM; that for `Nc1n[nH]cc1-c1cc(Cl)ccc1Oc1cc(F)c(S(=O)(=O)Nc2ccncn2)cc1Cl` [Example 1036, 4-[2-(3-amino-1H-pyrazol-4-yl)-4-chlorophenoxy]-5-chloro-2-fluoro-N-pyrimidin-4-ylbenzenesulfonamide], 21 nM.
As to `Cc1cc(S(=O)(=O)Nc2nncs2)c(F)cc1Oc1ccc(OC(F)(F)F)cc1-c1ccnnc1` [Example 1037, 2-fluoro-5-methyl-4-[2-pyridazin-4-yl-4-(trifluoromethoxy)phenoxy]-N-1,3,4-thiadiazol-2-ylbenzenesulfonamide], the IC50 was 12 nM.
The same measure, in the same setting: the result for `Nc1n[nH]cc1-c1cc(Cl)ccc1Oc1cc(F)c(S(=O)(=O)Nc2cccnn2)cc1Cl` [Example 1038, 4-[2-(3-amino-1H-pyrazol-4-yl)-4-chlorophenoxy]-5-chloro-2-fluoro-N-pyridazin-3-ylbenzenesulfonamide] reads 34 nM; that for `Cn1nccc1-c1cc(Cl)ccc1Oc1ccc(S(=O)(=O)/N=c2\sccn2COP(=O)(O)O)cc1C#N` [Example 1039, [(2Z)-2-[({4-[4-Chloro-2-(1-methyl-1H-pyrazol-5-yl)phenoxy]-3-cyanophenyl}sulfonyl)imino]-1,3-thiazol-3(2H)-yl]methyl dihydrogen phosphate], 310 nM.
